According to EP0257993B1, “Nucleic acid fragment encoding herbicide resistant plant acetolactate synthase” (priority 1986, dated 1988):

Columns and labels:
tobacco plant cells = assay: Herbicide resistance in plant cells transformed with site specific mutant sugarbeet ALS gene; assay type: cell-based; conditions: 2x10^5 starting plant cells; for Kanamycin^R: kanamycin at 50ppm; for Chlorsulfuron^R: chlorsulforon at 2ppb
Method: Introduction of the ALS genes into herbicide sensitive tobacco and sugarbeet, by co-cultivation of the plant cells with A. tumefaciens carrying the ALS genes in the binary vector, was performed as described in EXAMPLE I and EXAMPLE II. Herbicide resistant transformants were obtained with three of the four mutant sugarbeet ALS genes. The frequency of obtaining herbicide resistant transformants was lower than that for kanamycin resistant transformants, and also lower than the frequency of herbicide resistant transformants obtained when the tobacco SURB-Hra gene was used. […] This may reflect either insufficient nucleotide regulatory sequences upstream or downstream of the mutant sugarbeet ALS genes in the DNA fragments used or poor utilization of sugarbeet nucleotide regulatory sequences in tobacco or both. […]
Gene introductions were done by standard co-cultivation method. […] Selection was with chlorsulforon at 2ppb or kanamycin at 50ppm.

alfalfa callus = assay: Resistant growth of transformed alfalfa callus and tissue; assay type: cell-based, Medicago sativa cv. Rangelander
Method: These explants were dipped into a log phase Agrobacterium culture prepared as described in EXAMPLE I, transferred to fresh co-cultivation plates, and cultured at 24°C with 16 hr. days for 3 days.
The bacteria were killed by washing the explants for 3 hrs. with gentle agitation in washing media, and cultured on fresh selection plates.
The explants were subcultured every 3-4 weeks. […] When callus became more organized, (areas are darker green and more compact) it was transferred to fresh maturation media.

melon callus = assay: Kanamycin selection of melon cotyledon explants; assay type: cell-based, Cucumis melo cv. Amarillo Oro; conditions: kanamycin at 100µm/l
[1] = tested on: Sensitive N. tabacum Cells; assay: Co-cultivation of N. tabacum protoplasts with A. tumefaciens, colony formation on selective media; assay type: cell-based, Nicotiana tabacum var. Wisconsin 38; conditions: for Number of Colony Forming Units derived from 10^5 Protoplast Equivalents One Month after Co-cultivation: Table 7
Method: Sterile tobacco (Nicotiana tabacum var. Wisconsin 38) plants were cultured from 1 cm apical or auxillary explants on OMS Medium in Magenta Boxes under a cycle of a 16 hour light period (6,000-8,000 lux) followed by an 8 hour dark period. When the plants were 5-7 weeks old, fully expanded leaves (3-6 leaves down from the apex) were removed, and two leaves each were placed, top surface down, on 20 mL of protoplast isolation medium in a 100 x 25 mm petri dish. The leaves were then submerged and finely divided with a sharp surgical blade. The midrib was held and the cuts were made outward from it towards the leaf margin at approximately 2 mm intervals. The petri dishes were then sealed with parafilm and the macerated tissue incubated overnight (14-17 hours) in darkness at 27-29°C with gentle gyrotory agitation (20-25 rpm).
The glass tubing was placed in a Babcock bottle, and the cheesecloth was wetted with K3/S(1) Medium. The digested leaf tissue from two petri dishes was carefully poured into the funnel. The cheesecloth was rinsed and expressed into the bottle. The loaded bottles were topped with K3/S(1) Medium, covered with foil and centrifuged at approximately 100 x g for 10 minutes. The floating protoplasts (1-2 mL) were collected with a 1 mL serological pipette and placed in 20 mL of K3/S(1) Medium in another Babcock bottle. After resuspending the protoplasts by gently swirling, the Babcock bottles were topped and centrifuged as before. The floating protoplasts (1-2 mL) were collected as described above and placed in 30 mL of K3/G(1) Medium. The protoplasts were counted in a hemacytometer, and the volume was adjusted to give 1 x 10^+5 protoplasts/mL. 5 mL aliquots of the protoplasts were plated in petri dishes [100 x 20 mm tissue-culture petri dishes (Corning); these dishes were used in all subsequent protoplast manipulations] and cultured in darkness.
When the optical density (at 550 nm) of the A. tumefaciens cultures was 0.6 (log phase culture), approximately 6 hours after dilution, the bacteria were added to plant cells at a multiplicity of approximately 50 bacteria/plant cell (an optical density of 1.0 at 550 nm = 1.4 x 10^9 bacteria). The bacteria and plant cell mixture was co-cultivated for 66 hours at 24°C in low light (approximately 500 lux). Non-transformed protoplast controls were incubated similarly, but without agrobacteria. The following protocol is carried out for each co-cultivation (transformed cells with different agrobacteria, as well as non-transformed cells).
Co-cultivation was terminated by adding 20 mL of a 1:1 mixture of K3/G(2) Medium:C Medium supplemented with 500 mg/liter of cefotaxime (to select against the agrobacteria) to 5 mL of the co-cultivation mixture. The co-cultivated cells were gently and thoroughly resuspended in the new medium by mixing with a 5 or 10 mL serological pipette. The cell density was 2 x 10^4 protoplast equivalents/mL (protoplast equivalents = initial protoplasts, assuming 100% recovery and cell survival) and the osmoticum was 0.35 M. Three 5 mL aliquots of each culture were dispensed into fresh petri dishes.
From this juncture until the cells were embedded in solid medium, the cells were cultured in low light (500-1500 lux) without motion and were aseptically transferred to different media. […] For these transfers, the contents of each plate were collected with a 5 mL serological pipette, placed in separate 15 mL polystyrene conical centrifuge tubes and centrifuged at approximately 50 x g for 5-10 minutes. The supernatant fluid was removed with a pipette without disrupting the loose pellet. Pellets of co-cultivated cells from each plate were then gently resuspended in the appropriate fresh medium.
Each of these cultures was returned to the petri dishes from which they were taken; in this way not all cells needed to be pelleted to effect a medium exchange with minimal cell loss.

calli of B. vulgaris = assay: Chlorsulfuron resistance of sugarbeet calli; assay type: cell-based, Beta vulgaris 87193
Text: Selection for transformed plant cells was applied as follows. […] The number of resistant colonies was counted after 20-30 days. More than one may be observed at each wound. Transformants were excised as follows. Callus was removed from the wound/explant with a surgical blade and cultured independently on fresh selective media. Some Agrobacterium can escape from counter-selection. Additional washes in cefotaxime containing liquid media are possible, as is repeated transfer to cefotaxime containing agar solidified plates. […]

[2] = Gene Origin Sugarbeet, ala(122)-pro
[3] = Gene Origin Sugarbeet, pro(197)-ala/trp(591)-leu
[4] = Gene Origin Sugarbeet, pro(197)-ala
[5] = Gene Origin Sugarbeet, trp(591)-leu
[6] = Gene Origin Tobacco, pro(197)-ala/trp(591)-leu

NC[C@H]1O[C@H](O[C@H]2[C@H](O)[C@@H](O[C@H]3O[C@H](CO)[C@@H](O)[C@H](N)[C@H]3O)[C@H](N)C[C@@H]2N)[C@H](O)[C@@H](O)[C@@H]1O [Kanamycin]
Kanamycin^R (tobacco plant cells; [2]): 415
Kanamycin^R (tobacco plant cells; [3]): 1362
Kanamycin^R (tobacco plant cells; [4]): 1073
Kanamycin^R (tobacco plant cells; [5]): 1080
Kanamycin^R (tobacco plant cells; [6]): 1083
explants that developed callus resistant to kanamycin (alfalfa callus; kanamycin at 100mg/L): Less than 1%
explants that developed callus resistant to kanamycin (melon callus): Approximately 70%
Number of colony forming units derived from 10^5 protoplast equivalents one month after co-cultivation ([1]; Table 4, N.t. (non-cocultured control plant cells), Kanamycin 50 µg/mL): 0
Number of colony forming units derived from 10^5 protoplast equivalents one month after co-cultivation ([1]; Table 4, N.t./P145 (pAGS145, herbicide-sensitive ALS from phage clone 1), Kanamycin 50 µg/mL): 5.9 x 10^2
Number of colony forming units derived from 10^5 protoplast equivalents one month after co-cultivation ([1]; Table 5, N.t. (non-cocultured control plant cells), Kanamycin 50 µg/mL): 0
Number of colony forming units derived from 10^5 protoplast equivalents one month after co-cultivation ([1]; Table 5, N.t./P112 (pAGS112, kanamycin resistance vector), Kanamycin 50 µg/mL): 2.5 x 10^3
Number of colony forming units derived from 10^5 protoplast equivalents one month after co-cultivation ([1]; Table 5, N.t./p152 (pAGS152, phage clone 3), Kanamycin 50 µg/mL): 6.2 x 10^2
Number of Colony Forming Units derived from 10^5 Protoplast Equivalents One Month after Co-cultivation ([1]; N.t. (non co-cultured plant cells), Kanamycin 50 ug/ml): 0
Number of Colony Forming Units derived from 10^5 Protoplast Equivalents One Month after Co-cultivation ([1]; N.t./P312 (pAGS312, C3 subclone, φ31 orientation 1), Kanamycin 50 ug/ml): 65
Number of Colony Forming Units derived from 10^5 Protoplast Equivalents One Month after Co-cultivation ([1]; N.t./p152 (pAGS152, S4/Hra subclone), Kanamycin 50 ug/ml): 88
Number of Colony Forming Units derived from 10^5 Protoplast Equivalents One Month after Co-cultivation ([1]; N.t./p313 (pAGS313, C3 subclone, φ31 orientation 2), Kanamycin 50 ug/ml): 48
Number of Colony Forming Units derived from 10^5 Protoplast Equivalents One Month after Co-cultivation ([1]; N.t./p351 (pAGS351, C3 subclone, φ35), Kanamycin 50 ug/ml): 139
Number of Colony Forming Units derived from 10^5 Protoplast Equivalents One Month after Co-cultivation ([1]; N.t./p381 (pAGS381, C3 subclone, φ38), Kanamycin 50 ug/ml): 87

COc1nc(C)nc(NC(=O)NS(=O)(=O)c2ccccc2Cl)n1 [chlorsulfuron]
Chlorsulfuron^R (tobacco plant cells; [2]): 0
Chlorsulfuron^R (tobacco plant cells; [3]): 91
Chlorsulfuron^R (tobacco plant cells; [4]): 35
Chlorsulfuron^R (tobacco plant cells; [5]): 2
Chlorsulfuron^R (tobacco plant cells; [6]): 698
level of chlorsulfuron resistance in calli of B. vulgaris (calli of B. vulgaris; 87193/0 (untransformed), Chlorsulfuron 10 ppb): 0/15
level of chlorsulfuron resistance in calli of B. vulgaris (calli of B. vulgaris; 87193/0 (untransformed), Chlorsulfuron 30 ppb): 0/15
level of chlorsulfuron resistance in calli of B. vulgaris (calli of B. vulgaris; 87193/152 (transformed, pAGS152), Chlorsulfuron 10 ppb): 15/15
level of chlorsulfuron resistance in calli of B. vulgaris (calli of B. vulgaris; 87193/152 (transformed, pAGS152), Chlorsulfuron 30 ppb): 15/15
level of chlorsulfuron resistance in calli of B. vulgaris (calli of B. vulgaris; 87193/152 (transformed, pAGS152), Chlorsulfuron 100 ppb): 15/15
level of chlorsulfuron resistance in calli of B. vulgaris (calli of B. vulgaris; 87193/152 (transformed, pAGS152), Chlorsulfuron 300 ppb): 15/15
level of chlorsulfuron resistance in calli of B. vulgaris (calli of B. vulgaris; 87193/152 (transformed, pAGS152), Chlorsulfuron 1000 ppb): 15/15
level of chlorsulfuron resistance in calli of B. vulgaris (calli of B. vulgaris; 87193/152 (transformed, pAGS152), Chlorsulfuron 3000 ppb): 3/15
level of chlorsulfuron resistance in calli of B. vulgaris (calli of B. vulgaris; 87193/152 (transformed, pAGS152), Chlorsulfuron 10000 ppb): 0/15
resistance of kanamycin resistant sectors (alfalfa callus; chlorsulfuron at 50 ppb): resistant
chlorsulfuron concentration at which transformant tissue was able to grow (alfalfa callus; one transformant): 1000 ppb
chlorsulfuron concentration at which transformant tissue was able to grow (alfalfa callus; the other two transformants): 5000 ppb
chlorsulfuron resistance conferred in transformed tobacco calluses ([1]; 6.3 kb DNA fragment (SURA-C3)): 2 ppb
Number of colony forming units derived from 10^5 protoplast equivalents one month after co-cultivation ([1]; Table 4, N.t. (non-cocultured control plant cells), Chlorsulfuron 2 ng/mL): 0
Number of colony forming units derived from 10^5 protoplast equivalents one month after co-cultivation ([1]; Table 4, N.t./P145 (pAGS145, herbicide-sensitive ALS from phage clone 1), Chlorsulfuron 2 ng/mL): 0
Number of colony forming units derived from 10^5 protoplast equivalents one month after co-cultivation ([1]; Table 5, N.t. (non-cocultured control plant cells), Chlorsulfuron 2 ng/mL): 0
Number of colony forming units derived from 10^5 protoplast equivalents one month after co-cultivation ([1]; Table 5, N.t./P112 (pAGS112, kanamycin resistance vector), Chlorsulfuron 2 ng/mL): 0
Number of colony forming units derived from 10^5 protoplast equivalents one month after co-cultivation ([1]; Table 5, N.t./p152 (pAGS152, phage clone 3), Chlorsulfuron 2 ng/mL): 6.5 x 10^2
Number of Colony Forming Units derived from 10^5 Protoplast Equivalents One Month after Co-cultivation ([1]; N.t. (non co-cultured plant cells), Chlorsulfuron 2 ng/ml): 0
Number of Colony Forming Units derived from 10^5 Protoplast Equivalents One Month after Co-cultivation ([1]; N.t./P312 (pAGS312, C3 subclone, φ31 orientation 1), Chlorsulfuron 2 ng/ml): 0
Number of Colony Forming Units derived from 10^5 Protoplast Equivalents One Month after Co-cultivation ([1]; N.t./p152 (pAGS152, S4/Hra subclone), Chlorsulfuron 2 ng/ml): 83
Number of Colony Forming Units derived from 10^5 Protoplast Equivalents One Month after Co-cultivation ([1]; N.t./p313 (pAGS313, C3 subclone, φ31 orientation 2), Chlorsulfuron 2 ng/ml): 0
Number of Colony Forming Units derived from 10^5 Protoplast Equivalents One Month after Co-cultivation ([1]; N.t./p351 (pAGS351, C3 subclone, φ35), Chlorsulfuron 2 ng/ml): 32
Number of Colony Forming Units derived from 10^5 Protoplast Equivalents One Month after Co-cultivation ([1]; N.t./p381 (pAGS381, C3 subclone, φ38), Chlorsulfuron 2 ng/ml): 18
